SMILES strings stand for the structures. “And” between values parts separate entries of the source, which are not always exact repeats. Equal values may be shown once. Inconclusive results and toxic doses are left out.

This experiment has as its system BDF1 mice, P388 leukemia ip, median survival T/C. Briefly: NCI In Vivo Anticancer Drug Screen. Data for tumor model P388 Leukemia (intraperitoneal) in B6D2F1 (BDF1) mice. The following applies: endpoint: median survival time, higher = longer survival. The method in brief:
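Compound-treated tumour-bearing mice were compared with vehicle-treated controls. Survival was recorded, and the value is the treated-group measurement divided by the control-group measurement (T/C).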

Where [1] appears, read: dose: 50.0 mg/kg/injection, schedule: Q01DX009 (ip), vehicle: saline with Tween-80.
[2] abbreviates: dose: 50.0 mg/kg/injection, schedule: Q04DX003 (ip), vehicle: saline with Tween-80.
Where [3] appears, read: dose: 100.0 mg/kg/injection, schedule: Q01DX009 (ip), vehicle: saline with Tween-80.
The mark [4] stands for this setting: dose: 100.0 mg/kg/injection, schedule: Q04DX003 (ip), vehicle: saline with Tween-80.
The mark [5] stands for this setting: dose: 200.0 mg/kg/injection, schedule: Q04DX003 (ip), vehicle: saline with Tween-80.
Where [6] appears, read: dose: 100.0 mg/kg/injection, schedule: Q01DX009 (ip), vehicle: Klucel (hydroxypropylcellulose) (HPC).
Setting [7] is: dose: 100.0 mg/kg/injection, schedule: Q04DX003 (ip), vehicle: Klucel (hydroxypropylcellulose) (HPC).
The mark [8] stands for this setting: dose: 200.0 mg/kg/injection, schedule: Q01DX009 (ip), vehicle: saline with Tween-80.
[9] abbreviates: dose: 400.0 mg/kg/injection, schedule: Q04DX003 (ip), vehicle: saline with Tween-80.

Turning to `CCOCc1nc2nc(Cl)c(Cl)nc2[nH]1`, the T/C by setting is: (dose: 12.5 mg/kg/injection, schedule: Q01DX009 (ip), vehicle: saline with Tween-80) 89 % of control and 99 % of control; (dose: 25.0 mg/kg/injection, schedule: Q01DX009 (ip), vehicle: saline with Tween-80) 89 % of control and 100 % of control; (dose: 25.0 mg/kg/injection, schedule: Q04DX003 (ip), vehicle: saline with Tween-80) 100 % of control; under setting [1], 86 % of control and 104 % of control and 105 % of control; under setting [2], 98 % of control; under setting [3], 100 % of control. For the same molecule, the T/C runs as follows: under setting [4], 98 % of control; under setting [5], 89 % of control and 104 % of control.
In the case of `COc1ccc(CCC(C)=O)cc1`, the T/C is, setting by setting: under setting [6], 100 % of control; under setting [7], 95 % of control; (dose: 200.0 mg/kg/injection, schedule: Q04DX003 (ip), vehicle: Klucel (hydroxypropylcellulose) (HPC)) 110 % of control; (dose: 400.0 mg/kg/injection, schedule: Q01DX009 (ip), vehicle: Klucel (hydroxypropylcellulose) (HPC)) 109 % of control; (dose: 400.0 mg/kg/injection, schedule: Q04DX003 (ip), vehicle: Klucel (hydroxypropylcellulose) (HPC)) 105 % of control.
On to `C=C(Cl)CSCC`, for which the T/C (dose: 6.25 mg/kg/injection, schedule: Q04DX003 (ip), vehicle: alcohol) is 100 % of control; the T/C (dose: 12.5 mg/kg/injection, schedule: Q01DX009 (ip), vehicle: acetone) was 118 % of control; the T/C (dose: 12.5 mg/kg/injection, schedule: Q04DX003 (ip), vehicle: alcohol) was 105 % of control; the T/C (dose: 25.0 mg/kg/injection, schedule: Q01DX009 (ip), vehicle: acetone) was 113 % of control; the T/C (dose: 25.0 mg/kg/injection, schedule: Q04DX003 (ip), vehicle: alcohol) is 100 % of control; the T/C (dose: 45.0 mg/kg/injection, schedule: Q01DX001 (ip), vehicle: saline) is 109 % of control. In addition, the T/C (dose: 90.0 mg/kg/injection, schedule: Q01DX001 (ip), vehicle: saline) is 109 % of control; the T/C (dose: 120.0 mg/kg/injection, schedule: Q04DX003 (ip), vehicle: saline) is 109 % of control; the T/C (dose: 180.0 mg/kg/injection, schedule: Q04DX003 (ip), vehicle: saline) is 95 % of control; the T/C (dose: 270.0 mg/kg/injection, schedule: Q04DX003 (ip), vehicle: saline) was 86 % of control.
Regarding `OCCN(CCO)c1cc(/C=C/c2ccnc3ccccc23)nc2ccccc12`, the T/C by setting is: under setting [1], 89 % of control; under setting [3], 89 % of control; under setting [8], 91 % of control.
As to `CC1(C)OC(CI)C(COS(C)(=O)=O)O1` (configuration not stated), the T/C is 100 % of control under setting [1], 91 % of control under setting [3] and 112 % of control under setting [8].
Turning to `C[C@@H](O)[C@@H](O)c1cnc2nc(N)[nH]c(=O)c2n1`, the T/C (dose: 50.0 mg/kg/injection, schedule: Q01DX005 (ip), vehicle: saline with Tween-80) was 100 % of control; the T/C (dose: 100.0 mg/kg/injection, schedule: Q01DX005 (ip), vehicle: saline with Tween-80) is 91 % of control; the T/C (dose: 200.0 mg/kg/injection, schedule: Q01DX005 (ip), vehicle: saline with Tween-80) was 115 % of control.
For `O=C1c2ccccc2C(=O)N1CC/C=C/c1ccc([N+](=O)[O-])cc1Cl`, the T/C under setting [4] was 100 % of control, the T/C under setting [5] was 100 % of control and the T/C under setting [9] is 100 % of control.
With `C[C@H]1CCC/C=C/[C@@H]2C[C@H](O)C[C@H]2[C@H](O)/C=C/C(=O)O1`, the T/C reads like this: (dose: 2.5 mg/kg/injection, schedule: Q01DX009 (ip), vehicle: Klucel (hydroxypropylcellulose) (HPC)) 110 % of control; (dose: 4.0 mg/kg/injection, schedule: Q01DX010 (ip), vehicle: other) 90 % of control; (dose: 5.0 mg/kg/injection, schedule: Q01DX009 (ip), vehicle: Klucel (hydroxypropylcellulose) (HPC)) 106 % of control; (dose: 8.0 mg/kg/injection, schedule: Q01DX010 (ip), vehicle: other) 90 % of control; (dose: 10.0 mg/kg/injection, schedule: Q01DX009 (ip), vehicle: Klucel (hydroxypropylcellulose) (HPC)) 94 % of control; (dose: 25.0 mg/kg/injection, schedule: Q01DX009 (ip), vehicle: Klucel (hydroxypropylcellulose) (HPC)) 100 % of control. In addition, the T/C was 100 % of control (dose: 50.0 mg/kg/injection, schedule: Q01DX009 (ip), vehicle: Klucel (hydroxypropylcellulose) (HPC)); 104 % of control (dose: 50.0 mg/kg/injection, schedule: Q04DX003 (ip), vehicle: Klucel (hydroxypropylcellulose) (HPC)); 90 % of control under setting [6]; 109 % of control under setting [7].
Take `NC(=O)N/C=C1\CCCOC1=O`: the T/C is, setting by setting: under setting [2], 111 % of control; under setting [4], 101 % of control; under setting [5], 104 % of control; under setting [9], 109 % of control.
With `Cc1[nH]c2cc(Br)ccc2c1/C=N/NC(N)=S`, the T/C is 107 % of control (dose: 25.0 mg/kg/injection, schedule: Q01DX001 (ip), vehicle: Klucel (hydroxypropylcellulose) (HPC)); 102 % of control (dose: 50.0 mg/kg/injection, schedule: Q01DX001 (ip), vehicle: Klucel (hydroxypropylcellulose) (HPC)); 103 % of control (dose: 100.0 mg/kg/injection, schedule: Q01DX001 (ip), vehicle: Klucel (hydroxypropylcellulose) (HPC)).
For `CC(=O)OC(C)(C)/C=C/C(=O)[C@](C)(O)[C@H]1[C@H](O)C[C@@]2(C)[C@@H]3CC=C4[C@@H](C=C(O)C(=O)C4(C)C)[C@]3(C)C(=O)C[C@]12C`, the T/C (dose: 1.0 mg/kg/injection, schedule: Q01DX009 (ip), vehicle: saline) was 100 % of control and the T/C (dose: 2.0 mg/kg/injection, schedule: Q01DX009 (ip), vehicle: saline) is 110 % of control.
For `COc1cc2c(c(OC)c1OC)-c1ccc(OC)c(=O)cc1[C@@H](N)CC2`, the T/C (dose: 1.25 mg/kg/injection, schedule: Q01DX009 (ip), vehicle: water) was 120 % of control; the T/C (dose: 2.0 mg/kg/injection, schedule: Q01DX010 (ip), vehicle: water) is 160 % of control; the T/C (dose: 5.0 mg/kg/injection, schedule: Q01DX009 (ip), vehicle: water) is 94 % of control; the T/C (dose: 20.0 mg/kg/injection, schedule: Q04DX003 (ip), vehicle: Klucel (hydroxypropylcellulose) (HPC)) was 176 % of control; the T/C (dose: 30.0 mg/kg/injection, schedule: Q04DX003 (ip), vehicle: Klucel (hydroxypropylcellulose) (HPC)) is 98 % of control; the T/C (dose: 45.0 mg/kg/injection, schedule: Q04DX003 (ip), vehicle: Klucel (hydroxypropylcellulose) (HPC)) is 89 % of control.
`CN1CCN(C)P1c1ccccc1`: the T/C is 109 % of control under setting [1], 112 % of control under setting [3] and 110 % of control under setting [8].
In the case of `CCCCCCCCCCCc1n(Cc2ccccc2)cc[n+]1C`, the T/C was 117 % of control (dose: 0.75 mg/kg/injection, schedule: Q01DX009 (ip), vehicle: saline); 114 % of control (dose: 1.5 mg/kg/injection, schedule: Q01DX009 (ip), vehicle: saline); 100 % of control (dose: 1.5 mg/kg/injection, schedule: Q04DX003 (ip), vehicle: saline); 114 % of control (dose: 3.0 mg/kg/injection, schedule: Q01DX009 (ip), vehicle: saline); 115 % of control (dose: 3.0 mg/kg/injection, schedule: Q04DX003 (ip), vehicle: saline).
Turning to `Ic1ncnc2c1ncn2C1CCCO1` (configuration not stated), the T/C reads like this: (dose: 44.0 mg/kg/injection, schedule: Q01DX009 (ip), vehicle: saline sonified) 100 % of control; (dose: 66.0 mg/kg/injection, schedule: Q01DX009 (ip), vehicle: saline sonified) 123 % of control; (dose: 100.0 mg/kg/injection, schedule: Q01DX009 (ip), vehicle: saline sonified) 114 % of control; (dose: 100.0 mg/kg/injection, schedule: Q04DX003 (ip), vehicle: saline sonified) 115 % of control; (dose: 150.0 mg/kg/injection, schedule: Q01DX009 (ip), vehicle: saline sonified) 114 % of control; (dose: 200.0 mg/kg/injection, schedule: Q01DX009 (ip), vehicle: saline sonified) 122 % of control. In addition, the T/C runs as follows: (dose: 200.0 mg/kg/injection, schedule: Q04DX003 (ip), vehicle: saline sonified) 120 % of control; (dose: 400.0 mg/kg/injection, schedule: Q01DX009 (ip), vehicle: saline sonified) 100 % of control; (dose: 400.0 mg/kg/injection, schedule: Q04DX003 (ip), vehicle: saline sonified) 105 % of control.

These data come from PubChem BioAssay AID328 (DTP/NCI, 2004).
